# Assay results from article PMC11596612, “Nine New Glycosylated Compounds from the Leaves of the Medicinal Plant Malus hupehensis” (Molecules, 2024).
# Like-named read-outs stand apart in the source and are kept apart here.
# System: NO production in LPS-activated RAW 264.7 macrophage cells
# Assay: Anti-NO activity assay: inhibition of NO production in LPS-activated RAW 264.7 macrophage cells
# Assay type: cell-based
# Conditions: LPS-activated RAW 264.7 cells, means of three independent replicates, ammonium pyrrolidinedithiocarbamate positive control, read-out: NO production inhibitory activity IC50 (RAW 264.7)
# Experimental: Using a previously published method, the anti-inflammatory activity of all compounds (1–15) was assessed based on the suppression of NO generation in RAW264.7 cells.
Compound,IC50,"IC50 (Mus musculus, RAW264.7)"
"S=C(S)N1CCCC1 [Ammonium pyrrolidinedithiocarbamate, reference compound]",20 ± 0.12 µM,
"O=C(O[C@H]1[C@H](Oc2cc(O)cc(O)c2C(=O)CCc2ccc(O)cc2)O[C@H](CO)[C@@H](O)[C@@H]1O)c1ccccc1 [Compound 1, malahupinoside C]",,> 40 µM
"O=C(/C=C/c1ccccc1)O[C@H]1[C@H](Oc2cc(O)cc(O)c2C(=O)CCc2ccc(O)cc2)O[C@H](CO)[C@@H](O)[C@@H]1O [Compound 2, malahupinoside D]",,> 40 µM
"O=C(/C=C/c1ccc(O)cc1)OC[C@H]1O[C@@H](Oc2cc(O)cc(O)c2C(=O)CCc2ccc(O)cc2)[C@H](O)[C@@H](O)[C@@H]1O [Compound 3, malahupinoside E]",,> 40 µM
"COc1cc(/C=C/C(=O)OC[C@H]2O[C@@H](Oc3cc(O)cc(O)c3C(=O)CCc3ccc(O)cc3)[C@H](O)[C@@H](O)[C@@H]2O)ccc1O [Compound 4, malahupinoside F]",,29.6 µM
COc1cccc2c1oc1c(OC)cc(O)cc12 [Compound 5],,> 40 µM
"COc1cccc2c1oc1c(OC)cc(O)c(OC3OC(CO)C(O)C(O)C3O)c12 (stereo not shown) [Compound 6, fortuneanoside N]",,> 40 µM
"COc1cc(O)c(OC2OC(CO)C(O)C(O)C2O)c2c1oc1ccccc12 (stereo not shown) [Compound 7, fortuneanoside O]",,> 40 µM
"COc1cc(OC)cc(-c2ccccc2OC2OC(CO)C(O)C(O)C2O)c1 (stereo not shown) [Compound 8, fortuneanoside P]",,> 40 µM
"COc1cc(OC)c(OC2OC(CO)C(O)C(O)C2O)c(-c2ccccc2O)c1 (stereo not shown) [Compound 9, fortuneanoside Q]",,> 40 µM
"O=C(OC[C@H]1O[C@@H](Oc2cc(O)cc(O)c2C(=O)CCc2ccc(O)cc2)[C@H](O)[C@@H](O)[C@@H]1O)c1ccccc1 [Compound 10, phloridzin 6″-O-benzoate]",> 40 µM,
"O=C(C=Cc1ccccc1)OCC1OC(Oc2cc(O)cc(O)c2C(=O)CCc2ccc(O)cc2)C(O)C(O)C1O (stereo not shown) [Compound 11, phloridzin 6″-O-cinnamate]",> 40 µM,
"O=C(/C=C/c1ccc(O)cc1)Oc1ccc(CCC(=O)c2c(O)cc(O)cc2O[C@@H]2O[C@H](CO)[C@@H](O)[C@H](O)[C@H]2O)cc1 [Compound 12, 4-[3-[2-(β-D-Glucopyranosyloxy)-4,6-dihydroxyphenyl]-3-oxopropyl]phenyl(2E)-3-(4-hydroxyphenyl)-2-propenoate]",,> 40 µM
"COc1cc(O)cc2c1oc1ccccc12 [Compound 14, 2-Hydroxy-4-methoxydibenzofuran]",,> 40 µM
"COc1cc(OC)cc(-c2ccc(O)c(O[C@@H]3O[C@H](CO)[C@@H](O)[C@H](O)[C@H]3O)c2)c1 [Compound 15, 3′,5′-Dimethoxy-(1,1′-biphenyl)-3,4-diol 3-O-β-D-glucopyranoside]",,> 40 µM
methylenebisphloridzin [Compound 13],> 40 µM,
